Read-outs that look alike come from different tables or passages of the source.
Key:
Format in all cases: biochemical
AChE [1] = target: T1, AChE (Rattus norvegicus, UniProt P37136); assay: In vitro AChE inhibitory assay (Ellman's method)
T1 construct: AChE was derived from the SD rat brains by homogenizing the brain with 20-fold saline solution; from tissue; host or cells: SD rat brain homogenate (supernatant after 800 x g)
Protocol: The AChE inhibitory activity of DL0410 derivatives was assessed by determining the hydrolysis product of Acetylthiocholine iodide (ASCh) using the Ellman’s method. 5,5′-Dithiobis (2-nitrobenzoic acid) (DTNB), and the substrate ASCh were purchased from Sigma Aldrich. AChE was derived from the SD rat brains by homogenizing the brain with 20-fold saline solution, and then centrifuged at 800× g for 20 min at 4 °C. To acquire the inhibition of AChE activity, five serial dilutions of samples were measured. A Spectra Max M5 microplate reader (Molecular Devices, Sunnyvale, CA, USA) was utilized for the assay for AChE reaction system with 96-well plates in 0.05 M phosphate-buffered solution (PBS). The reaction system includes 10 μL sample, 20 μL AChE solution, 60 μL 3.75 mM ASCh, and 80 μL 0.25 mg/mL DTNB. It took 60 min at 37 °C for incubation, and the absorbance intensity of AChE reaction system was quantified at 412 nm.

BuChE [2] = target: T2, BuChE (Homo sapiens, UniProt P06276); assay: In vitro BuChE inhibitory assay (Ellman-type, human plasma); settings: BuChE from human plasma, BuSCh substrate, 60 min, 37 °C
T2 construct: BuChE was obtained from human plasma (purchased from Beijing Red Cross Blood Center China); tissue Beijing Red Cross Blood Center China; host or cells: human plasma, diluted 200-fold with 0.05 M PBS
T2 sequence (P06276 29-602): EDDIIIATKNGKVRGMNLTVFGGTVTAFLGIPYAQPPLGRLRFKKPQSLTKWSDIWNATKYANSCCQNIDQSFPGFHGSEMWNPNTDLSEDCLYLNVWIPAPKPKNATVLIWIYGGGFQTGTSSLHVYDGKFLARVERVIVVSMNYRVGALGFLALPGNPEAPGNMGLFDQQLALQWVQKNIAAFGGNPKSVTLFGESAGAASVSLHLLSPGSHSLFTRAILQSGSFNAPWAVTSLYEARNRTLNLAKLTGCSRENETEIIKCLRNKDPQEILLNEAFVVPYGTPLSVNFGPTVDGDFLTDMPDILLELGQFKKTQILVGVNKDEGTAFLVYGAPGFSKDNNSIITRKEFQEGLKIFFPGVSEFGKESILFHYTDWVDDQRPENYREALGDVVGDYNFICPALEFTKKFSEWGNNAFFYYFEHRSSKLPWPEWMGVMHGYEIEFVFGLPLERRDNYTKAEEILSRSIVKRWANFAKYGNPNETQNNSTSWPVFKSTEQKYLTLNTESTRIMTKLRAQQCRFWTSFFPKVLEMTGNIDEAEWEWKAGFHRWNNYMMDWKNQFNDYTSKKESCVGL
Protocol: BuChE was obtained from human plasma (purchased from Beijing Red Cross Blood Center China). Before utilization, human plasma was diluted 200-fold with 0.05 M PBS. Five serial dilutions of samples are determined to obtain BuChE inhibitory activity. The BuChE reaction system is similar to the assay above, including 10 μL samples, 40 μL diluted plasma sample, 70 μL 7.5 mM S-butyrylthiocholine (BuSCh), and 80 μL 0.25 mg/mL DTNB. After incubation at 37 °C for 60 min, the absorbance intensity of the system was measured at wavelength 412 nm.

AChE [3] = target: T1, AChE; assay: AChE kinetic study (Lineweaver-Burk and Dixon plots); settings: for Ki: Dixon plot, inhibitor 0.1, 0.3, 1 μM, substrate 1.25-20 mM, n = 3; for type of inhibition of AChE: Lineweaver-Burk plot
Protocol: (§1) To have an insight into how structure modification affected the inhibitory activities, molecular docking and kinetics studies were performed for DL0410, compounds 6-1 and 7-6. After the docking parameters were set, the crystal poses of donepezil and N-((1-benzylpiperidin-3-yl)methyl)-N-(2-methoxyethyl) naphthalene-2-sulfonamide were first re-docked into the binding site pocket of AChE and BuChE, respectively. Donepezil is a mixed-type inhibitor of AChE used in the palliative treatment of AD [25]. N-((1-benzylpiperidin-3-yl)methyl)-N-(2-methoxyethyl) naphthalene-2-sulfonamide is a potent, selective, and reversible human BuChE inhibitor, which can improve memory, cognitive functions, and learning abilities. The root mean square deviation (RMSD) values between the docking and initial poses were 0.872 and 1.253, respectively, which implied that the docking models built by CDOCKER could reproduce the crystal binding model and were suitable for the AChE and BuChE system. DL0410 and two highly inhibitory compounds (compounds 6-1 and 7-6) were docked to the active pockets of AChE and BuChE. For AChE, these three compounds could dock to TRP86 of CAS via π-Alkyl interaction or electrostatic attraction, near the bottom of the active site gorge, and TRP286 of PAS via π-π stacking interaction, near its entrance (Figure 4). The value of –CDOCKER INTERACTION ENERGY was followed by compound 6-1 > compound 7-6 > DL0410. The dibenzofuran of compound 6-1 formed stronger π-π stacking interaction with TYR341 and TRP286, and the carbonyl formed hydrogen bond with TYR72. In addition, hydrogen bond interaction of compound 7-6 made it high inhibition for AChE. […] There existed more hydrogen bonds for compound 7-6, and a highly electronegative fluorine atom caused its strong interaction with GLY116. Therefore, the fluorine atom substitution and the structure of dibenzofuran made compounds 6-1 and 7-6 different from DL0410. Compound 7-6 formed more hydrogen bonds with AChE and BuChE. The structure of dibenzofuran caused the extension direction of compound 6-1 to change, which was more conducive to forming electrostatic attractive interactions. In silico results were consistent with the kinetics studies of AChE and BuChE. […] The inhibition kinetic data were analyzed by Lineweaver-Burk and Dixon plots. The Lineweaver-Burk plot provides a useful means of distinguishing among competitive inhibition, non-competitive inhibition, and mixed inhibition, whereas the merit of the Dixon plot is that one can expediently determine Ki from the kinetic data. […] The results of the kinetics studies also validated that the three compounds were, indeed, capable of binding to CAS and PAS of AChE/BuChE. The PAS site could […] their catalytic efficiency, which led to high inhibitory effects.
(§2) Figure 6 The Lineweaver-Burk plots of DL0410, compound 6-1 and compound 7-6 on AChE inhibitory activity (A–C). The Lineweaver-Burk plots of DL0410, compound 6-1 and compound 7-6 on BuChE inhibitory activity (D–F). Kinetic analysis of AChE and BuChE was performed by using three effective concentrations of DL0410, compound 6-1 and compound 7-6 (0.1, 0.3, 1 μM for AChE, and 0.3, 1, 3 μM for BuChE) with the incubation of five different substrate concentrations (1.25, 2.5, 5, 10, 20 mM for AChE, and 2, 4, 8, 16, 32 mM for BuChE). […] (n = 3; a = mM^−1; b = min/ΔA).
(§3) Figure 7 Ki values were determined by Dixon plots. […] Figure D–F presented the Dixon plots of DL0410, compound 6-1 and compound 7-6 on BuChE inhibitory activity, respectively. […] (n = 3; b = min/ΔA).
(§4) It is important to determinate the type of inhibition in an effort to understand the mechanism of inhibition and the binding sites of the inhibitor sites. […]

BuChE [4] = target: T2, BuChE; assay: BuChE kinetic study (Lineweaver-Burk and Dixon plots); settings: for Ki: Dixon plot, inhibitor 0.3, 1, 3 μM, five substrate concentrations, n = 3; for type of inhibition of BuChE: Lineweaver-Burk plot
Protocol: as §1, §2, §3, §4

[5] = AChE from SD rat brain homogenate, ASCh substrate, 60 min, 37 °C, read-out: IC50(μM) AChE

T1 sequence (P37136 32-614): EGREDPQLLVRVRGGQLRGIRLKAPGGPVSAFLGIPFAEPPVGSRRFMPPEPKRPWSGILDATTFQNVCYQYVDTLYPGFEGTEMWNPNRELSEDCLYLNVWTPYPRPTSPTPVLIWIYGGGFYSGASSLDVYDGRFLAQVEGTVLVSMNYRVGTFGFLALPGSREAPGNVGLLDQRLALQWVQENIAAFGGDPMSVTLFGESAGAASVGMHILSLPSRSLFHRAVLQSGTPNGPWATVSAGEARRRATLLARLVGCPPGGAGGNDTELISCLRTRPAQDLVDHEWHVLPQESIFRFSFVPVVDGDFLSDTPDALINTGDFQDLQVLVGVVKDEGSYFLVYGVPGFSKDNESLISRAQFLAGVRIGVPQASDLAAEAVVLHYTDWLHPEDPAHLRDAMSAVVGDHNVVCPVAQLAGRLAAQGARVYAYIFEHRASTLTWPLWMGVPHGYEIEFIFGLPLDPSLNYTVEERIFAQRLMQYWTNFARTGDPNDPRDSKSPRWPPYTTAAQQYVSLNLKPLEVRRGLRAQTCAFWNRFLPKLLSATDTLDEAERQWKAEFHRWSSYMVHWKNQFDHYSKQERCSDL

| SMILES | IC50 (AChE [1]; [5]) | IC50 (BuChE [2]; read-out: IC50(μM) BuChE) | other results |
| --- | --- | --- | --- |
| O=C(CCCN1CCCCC1)c1ccc(-c2ccc(C(=O)CCN3CCCCC3)cc2)cc1 [Compound 1-5] | 0.41 µM | 1.88 µM |  |
| CN(C)CC(=O)c1ccc(C(C)(C)c2ccc(C(=O)CN(C)C)cc2)cc1 [Compound 4-2] | 54.4 µM | 5.95 µM |  |
| O=C(CCN1CCCCC1)c1ccc2sc3ccc(C(=O)CCN4CCCCC4)cc3c2c1 [Compound 6-2] | 2.03 µM | 1.71 µM |  |
| COc1ccc2[nH]cc(CCNCC(=O)c3ccc(-c4ccc(C(=O)CNCCc5c[nH]c6ccc(OC)cc56)cc4)cc3)c2c1 [Compound 1-18] | 9.52 µM | > 200 µM |  |
| O=C(CCN1CCOCC1)c1ccc(-c2ccc(C(=O)CCN3CCOCC3)cc2)cc1 [Compound 1-15] |  | < 1 µM |  |
| O=C(CCN1CCCCC1)c1ccc(CCc2ccc(C(=O)CCN3CCCCC3)cc2)cc1 [Compound 2-3] |  | 3.41 µM |  |
| O=C(CCN1CCCCC1)c1ccc2c(c1)c1cc(C(=O)CCN3CCCCC3)ccc1n2C(=O)CCN1CCCCC1 [Compound 7-7] | 1.42 µM | 4.79 µM |  |
| O=C(CCN1CCCCC1)c1ccc([S+]([O-])c2ccc(C(=O)CCN3CCCCC3)cc2)cc1 [Compound 5-3] | 14.1 µM | > 200 µM |  |
| O=C(CCN1CCCCC1)c1ccc(Oc2ccc(C(=O)CCN3CCCCC3)cc2)cc1 [Compound 5-1] | 0.89 µM | 5.68 µM |  |
| O=C(c1ccc(-c2ccc(C(=O)N3CCCCC3)cc2)cc1)N1CCCCC1 [Compound 1-2] | 0.84 µM | 2.22 µM |  |
| CN(C)CCC(=O)c1ccc(C(C)(C)c2ccc(C(=O)CCN(C)C)cc2)cc1 [Compound 4-1] | 4.89 µM | 6 µM |  |
| O=C(COCCN1CCCCC1)c1ccc(-c2ccc(C(=O)OCCN3CCCCC3)cc2)cc1 [Compound 7-4] | 18.5 µM | > 200 µM |  |
| C=C(CN1CCCCC1)C(=O)c1ccc(-c2ccc(C(=O)C(=C)CN3CCCCC3)cc2)cc1 [Compound 7-2] | 17.1 µM | 1.55 µM |  |
| CC1CCN(CC(=O)c2ccc(-c3ccc(C(=O)CN4CCC(C)CC4)cc3)cc2)CC1 [Compound 1-7] | 49.1 µM | 36.6 µM |  |
| CC(C)(c1ccc(C(=O)CCN2CCOCC2)cc1)c1ccc(C(=O)CCN2CCOCC2)cc1 [Compound 4-5] | 15.7 µM | 16.3 µM |  |
| CN(C)CCC(=O)c1ccc(Cc2ccc(C(=O)CCN(C)C)cc2)cc1 [Compound 3-5] | 3.32 µM | 1.72 µM |  |
| O=C(CN1CCCCC1)c1ccc(CCc2ccc(C(=O)CN3CCCCC3)cc2)cc1 [Compound 2-1] | 75.5 µM |  |  |
| CC(C)(c1ccc(C(=O)CCN2CCCCC2)cc1)c1ccc(C(=O)CCN2CCCCC2)cc1 [Compound 4-3] | 3.07 µM | 3.09 µM |  |

| SMILES | IC50 (AChE [1]; [5]) | IC50 (BuChE [2]; read-out: IC50(μM) BuChE) | other results |
| --- | --- | --- | --- |
| CCN(CC)CCC(=O)c1ccc(-c2ccc(C(=O)CCN(CC)CC)cc2)cc1 [Compound 1-9] |  | < 1 µM |  |
| O=C(CCCCN1CCC1)c1ccc(CCc2ccc(C(=O)CCCCN3CCC3)cc2)cc1 [Compound 2-6] | 12.2 µM | > 200 µM |  |
| O=C(CCNC1CCCCC1)c1ccc(-c2ccc(C(=O)CCNC3CCCCC3)cc2)cc1 [Compound 1-16] | 2.15 µM | 1.91 µM |  |
| CN(C)CCC(=O)c1ccc(-c2ccc(C(=O)CCN(C)C)cc2)cc1 [Compound 1-8] |  | < 1 µM |  |
| CN(CCC(=O)c1ccc(-c2ccc(C(=O)CCN(C)Cc3ccccc3)cc2)cc1)Cc1ccccc1 [Compound 1-17] | 3.33 µM | 6.56 µM |  |
| CC(C)(c1ccc(C(=O)CN2CCCCC2)cc1)c1ccc(C(=O)CN2CCCCC2)cc1 [Compound 4-4] | 17.4 µM | 2.93 µM |  |
| CN1CCN(CCC(=O)c2ccc(Cc3ccc(C(=O)CCN4CCN(C)CC4)cc3)cc2)CC1 [Compound 3-4] | 7.55 µM | 24.4 µM |  |
| O=C(CCN1CCCCC1)c1ccc(-c2ccc(C(=O)CCN3CCCCC3)cc2F)cc1 [Compound 7-6] | 0.03 µM | 0.44 µM | Ki (AChE [3]): 0.55 ± 0.2 µM; type of inhibition of AChE (AChE [3]): mixed-type; Ki (BuChE [4]): 1.63 ± 0.18 µM; type of inhibition of BuChE (BuChE [4]): mixed-type |
| O=C(CCN1CCCCC1)c1ccc(-c2ccc(C(=O)CN3CCCCC3)cc2)cc1 [Compound 1-6] | 3.32 µM | 4.87 µM |  |
| CCN(C)C(=O)Oc1ccc(-c2ccc(OC(=O)N(C)CC)cc2)cc1 [Compound 7-3] |  |  | IC50 (AChE [1]): 34.1 µM; IC50 (BuChE [2]; IC50(μM) BuChE): 0.06 µM |
| O=C(CCN1CCOCC1)c1ccc(Cc2ccc(C(=O)CCN3CCOCC3)cc2)cc1 [Compound 3-2] | 7.09 µM | 7.65 µM |  |
| CN(C)CCCCC(=O)c1ccc(CCc2ccc(C(=O)CCCCN(C)C)cc2)cc1 [Compound 2-10] | 3.96 µM | 2.77 µM |  |
| CCN(C)C(=O)Oc1ccc(-c2ccc(C(=O)CCN3CCCCC3)cc2)cc1 [Compound 7-5] |  |  | IC50 (AChE [1]): 3.35 µM; IC50 (BuChE [2]; IC50(μM) BuChE): 0.2 µM |
| O=C(CCN1CCC(N2CCCCC2)CC1)c1ccc(-c2ccc(C(=O)CCN3CCC(N4CCCCC4)CC3)cc2)cc1 [Compound 1-19] | 0.25 µM | > 200 µM |  |
| O=C(CCN1CCCCC1)c1ccc(Sc2ccc(C(=O)CCN3CCCCC3)cc2)cc1 [Compound 5-2] | 3.89 µM | 3.44 µM |  |
| CN1CCN(CC(=O)c2ccc(Cc3ccc(C(=O)CN4CCN(C)CC4)cc3)cc2)CC1 [Compound 3-3] | 48.5 µM | 40 µM |  |
| O=C(CCN1CCCCC1)c1ccc2oc3ccc(C(=O)CCN4CCCCC4)cc3c2c1 [Compound 6-1] | 0.06 µM | 0.61 µM | Ki (AChE [3]): 0.42 ± 0.04 µM; type of inhibition of AChE (AChE [3]): mixed-type; Ki (BuChE [4]): 0.74 ± 0.16 µM; type of inhibition of BuChE (BuChE [4]): mixed-type |
| O=C(CCN1CCCCC1)c1ccc(Cc2ccc(C(=O)CCN3CCCCC3)cc2)cc1 [Compound 3-1] | 4.11 µM | 4.2 µM |  |

Source: article PMC6152156 (Molecules : A Journal of Synthetic Chemistry and Natural …, 2017)
